From the NIST ThermoML archive (doi:10.1016/j.fluid.2008.04.003)

Assay: wn = mass fraction of the nth substance listed
Settings: 101 kPa, Liquid; for viscosity: Capillary tube (Ostwald / Ubbelohde) method

NC(CO)(CO)CO [2-amino-2-(hydroxymethyl)-1,3-propanediol] + O
Settings | mass density, 283.15 K [kg/m3] | mass density, 288.15 K [kg/m3] | mass density, 293.15 K [kg/m3] | mass density, 298.15 K [kg/m3] | mass density, 303.15 K [kg/m3] | mass density, 308.15 K [kg/m3] | mass density, 313.15 K [kg/m3] | viscosity, 283.15 K [mPa·s] | viscosity, 298.15 K [mPa·s] | viscosity, 313.15 K [mPa·s]
w1 = 0.0015 | 1000.5 | 999.9 | 999.1 | 997.9 | 996.6 | 995 | 993.1 | 1.315 | 0.905 | 0.656
w1 = 0.005 | 1001.6 | 1001.3 | 1000.5 | 999.4 | 997.8 | 996 | 993.6 | 1.354 | 0.913 | 0.662
w1 = 0.01 | 1002.4 | 1001.8 | 1001 | 1000 | 998.7 | 997.2 | 995.4 | 1.36 | 0.917 | 0.669
w1 = 0.025 | 1006.8 | 1006 | 1005.1 | 1003.8 | 1002.3 | 1000.7 | 998.7 | 1.422 | 0.959 | 0.696
w1 = 0.1 | 1026.2 | 1025 | 1023.8 | 1022.4 | 1020.8 | 1019.4 | 1017.7 | 1.802 | 1.173 | 0.857
